Measured values published in PMC11428593 (Antibiotics, 2024).
Converted amounts (≈) assume the structure as drawn.

Legend:
Format in all cases: cell-based, Staphylococcus aureus
[1] = system: S. aureus strain USA300LAC; assay: Checkerboard assay with JC-01-074 (FIC index); conditions: MHB, 37 °C, 20 h, antibiotic combined with JC-01-074
Experimental: Therefore, we tested whether the membrane-disrupting effects of JC-01-074 could increase the sensitivity of the S. aureus strain USA300LAC to antibiotics of different classes; for instance, by facilitating their uptake into the cytoplasm. […] Antibiotic concentrations were prepared by the microbroth dilution in MHB based on their MIC values (Table 1) to obtain the final concentrations as outlined in the 96-well plate scheme for each antibiotic tested (Supplementary Figure S3). Overnight USA300LAC cultures were diluted to 5 × 10^5 CFU/mL in MHB, and the growth was recorded at 37 °C and 200 rpm for 20 h in the presence and absence of the indicated antibiotic.
FICs were calculated as the ratio of the MIC of the antimicrobial in combination with the MIC of the antimicrobial alone. Interactions were categorized as synergistic (<0.5), additive or no interaction (0.5–2), and antagonistic (>2). FICs were calculated from three biological replicates.
Following previous studies, the checkerboard assay was employed to determine whether JC-01-074 had synergistic effects in combination with members of different antibiotic classes. The indicated antibiotics tested in combination were first serially diluted two-fold in MHB on a longitudinal axis in a 96-well polystyrene plate. JC-01-074 was then serially diluted two-fold across the 96-well plate horizontal axis. The plates were inoculated with USA300LAC to a final inoculum concentration of 5 x10^5 CFU/mL (O.D.600nm = 0.0001) and incubated overnight at 37 °C for 20 h. The growth was measured at 600 nm in a Tecan 200 Infinite Pro microplate reader. The fractional inhibitory concentration was calculated as follows:FIC = MICJC-01-074 + antibiotics/[…]
The classification of interactions was based on the FIC index: interactions were categorized as synergistic (FIC ≤ 0.5), additive/no interaction (FIC 0.5–2.0), and antagonistic (FIC > 2.0).

[2] = system: S. aureus strain USA300LAC biofilm; assay: Inhibition of biofilm formation (crystal violet); conditions: up to 4× MIC, in words
Experimental: (§1) The establishment of a bacterial biofilm usually begins with pathogen attachment to biotic and abiotic surfaces, and S. aureus is notorious for its ability to form biofilms on surfaces, such as implants and catheters, which presents a unique treatment challenge.
(§2) Overnight cultures of S. aureus strain USA300LAC were diluted into fresh TSB to an OD600nm = 0.001 and incubated aerobically at 37 °C until the mid-log phase. (A) To detect effects on biofilm formation, cultures were diluted to an OD600nm = 0.0001 in the presence and absence of JC-01-074 and vancomycin at concentrations of 0.5–4× MIC, respectively. (B) To detect effects on biofilm eradication, cultures were diluted to an OD600nm = 0.0001 and incubated under static conditions for 24 h, after which planktonic cells were removed, and the preformed biofilms were washed twice with PBS. […] Biofilm mass was quantified after 20 h via crystal violet staining. One-way ANOVA, Dunnett’s multiple-comparison test (* p < 0.05, ** p < 0.01); (n = 3, ±S.D.).
The overnight USA300LAC cultures were diluted 1000-fold into the fresh TSB media and incubated under shaking conditions at 37 °C until the mid-log phase. The cultures were subsequently diluted to approximately 4 × 10^6 CFU/mL and dispended into 96-well polystyrene plates (Alkali Scientific, Fort Lauderdale, FL, USA) containing DMSO (control), vancomycin (0.5–4× MIC), or the indicated alkyl pyridinol compounds (0.5–4× MIC) and sealed with a breath-easy membrane (Fisherbrand, Waltham, MA, USA). The peripheral wells were filled with PBS to limit evaporation. The plates were incubated without agitation at 37 °C for 24 h, following which the planktonic cells were removed. The biofilms were washed twice with PBS, stained with 0.1% crystal violet (CV) for 15 min, and washed again twice with PBS to remove the unbound CV dye. CV bound to biofilm cells was extracted with 30% (v/v) glacial acetic acid, and the O.D.595nm was determined.

[3] = system: MRSA USA300LAC; assay: MIC by broth microdilution (CLSI); conditions: Staphylococcus aureus, MRSA, 16 h
Experimental: The MIC values of the alkyl pyridinol derivatives against the S. aureus strain ATCC 25923, MRSA strains ATCC 33591, ATCC BAA-44, and USA300LAC, as well as the P. aeruginosa strain ATCC 27853, were determined by following the CLSI guidelines for the broth microdilution antibiotic sensitivity testing protocol. In brief, the overnight cultures were diluted into Mueller Hinton Broth (MHB) to a final inoculum concentration of 5 × 10^5 CFU/mL (O.D600nm = 0.00001) and dispensed into a 96-well polystyrene plate (Alkali Scientific, Fort Lauderdale, FL, USA). Alkyl pyridine compounds were diluted into inoculated MHB to the indicated concentrations from stock solutions that would allow for DMSO concentrations below 5%, resulting in a total volume of 200 μL per well. The plates were subsequently incubated at 37 °C for 16 h at 300 rpm. The MIC values, which are defined as the lowest compound concentration that inhibited growth, were determined from three biological replicates.

[4] = system: S. aureus strain USA300LAC established biofilm; assay: Biofilm eradication assay (crystal violet); conditions: at or below 4× MIC, 24 h, in words
Experimental: as §1, §2
The overnight USA300LAC cultures were diluted 1000-fold into the TSB media and incubated under shaking conditions at 37 °C until the mid-log phase. […] After 24 h of incubation, biofilm eradication was assessed via CV staining at 595 nm in a Tecan 200 Infinite Pro microplate reader (Tecan, Morgan Hill, CA, USA).

## CN[C@H](CC(C)C)C(=O)N[C@H]1C(=O)N[C@@H](CC(N)=O)C(=O)N[C@H]2C(=O)N[C@H]3C(=O)N[C@H](C(=O)N[C@H](C(=O)O)c4cc(O)cc(O)c4-c4cc3ccc4O)[C@H](O)c3ccc(c(Cl)c3)Oc3cc2cc(c3O[C@@H]2O[C@H](CO)[C@@H](O)[C@H](O)[C@H]2O[C@H]2C[C@](C)(N)[C@H](O)[C@H](C)O2)Oc2ccc(cc2Cl)[C@H]1O [Vancomycin, reference compound]
[1]
  interaction with JC-01-074 (sum of FIC values): additive (additive/no interaction (FIC 0.5–2.0))
[2]
  inhibition of biofilm formation: failed to significantly inhibit biofilm formation
[3]
  MIC: 1 µg/mL (≈ 0.69 µM)
[4]
  eradication of established biofilms: neither JC-01-074 nor vancomycin successfully reduced established biofilms
